These are literature values, as cited in patent US11331358B2, “Pharmaceutical composition and method of manufacturing” (CURE PHARMACEUTICAL HOLDING CORP., priority 2014, dated 2022).

Values after ≈ are worked out from the molar mass of the structure shown. Read-outs that look alike come from different tables or passages of the source.

For this data set the following is noted: for Solubility in alcohols, lipids and organic solvents: solvents as named in the value; for Solubility in alcohols, lipids and organic solvents / Solubility in alkaline solutions: qualitative; for Solubility in alkaline solutions: alkaline solutions / alkalai.
The mark [1] stands for this setting: qualitative (insol. / sp. sol. / sol).

In the case of `CCCCCc1cc(O)c2c(c1)OC(C)(CCC=C(C)C)C=C2` (stereo not shown) [cannabichromene (CBC), cannabichromene], the “Solubility in alcohols, lipids and organic solvents” value (“Solubility in alcohols” for short) is “sol. pentane”. Besides, under setting [1], the “Solubility in water” value is on record as “insol”.
As to fenchone, the “Solubility in alcohols” value is “sol. alcohols, organic solvents (ethers, halocarbons)”. Under setting [1], the “Solubility in water” value is recorded as “insol”.
`CCCCCc1cc2c(c(O)c1C(=O)O)-c1cc(C)ccc1C(C)(C)O2` [cannabinolic acid (CBNA), cannabinolic acid]: the “Solubility in alkaline solutions” value is given as “sol”; the “Solubility in alcohols” value was “sol. alcohols”. Further, under setting [1], the “Solubility in water” value is “sol”.
For the compound `CC12CCC(CC1)C(C)(C)O2` [1,8-cineole], the “Solubility in alcohols” value was “sol. alcohols, organic solvents (ethers, halocarbons)”. The “Solubility in water” value under setting [1] is on record as “insol”.
Regarding `CCCCCc1cc(O)c2c(c1)OC(C)(C)[C@@H]1CC=C(C)CC21` (stereo partly shown) [Δ(8)-tetrahydrocannabinol (Δ(8)-THC), Δ(8)-tetrahydrocannabinol], the “Solubility in alcohols” value is given as “sol. MeOH, EtOH sol. lipids sol. non-polar organic solvents”. Moreover, under setting [1], the “Solubility in water” value is given as “insol”.
For the compound `CCCCCc1cc2c(c(O)c1C(=O)O)C1C=C(C)CC[C@H]1C(C)(C)O2` (stereo partly shown) [Δ(9)-tetrahydrocannabinolic acid], the “Solubility in alkaline solutions” value was “sol”; the “Solubility in alcohols” value is “sol. alcohols”. Further, under setting [1], the “Solubility in water” value is recorded as “sol”.
In the case of `CCCc1cc(O)c2c(c1)OC(C)(C)[C@@H]1CCC(C)=CC21` (stereo partly shown) [Δ(9)- tetrahydrocannabivarin (Δ(9)-THV), Δ(9)-tetrahydrocannabivarin], the “Solubility in alkaline solutions” value is given as “sol”; the “Solubility in alcohols” value is given as “sol. alcohols”. Besides, the “Solubility in water” value under setting [1] is recorded as “sol”.
`CCCCCc1cc2c(c(O)c1C(=O)O)C1C3C(CCC3(C)O2)C1(C)C` (stereo not shown) [cannabicyclolic acid (CBLA), cannabicyclolic acid]: the “Solubility in alkaline solutions” value is given as “sol”; the “Solubility in alcohols” value is “sol. alcohols”. For the same compound, the “Solubility in water” value under setting [1] was “sol”.
In the case of `C=C(C)C1CC=C(C)CC1` (stereo not shown) [limonene], the “Solubility in alcohols” value was “sol. alcohols, organic solvents (ethers, halocarbons), hydrocarbons”. Also, under setting [1], the “Solubility in water” value is given as “insol”.
`Cc1ccc(C(C)C)cc1` [p-cymene]: the “Solubility in alcohols” value was “sol. alcohols, organic solvents (ethers, halocarbons), hydrocarbons”. Also, the “Solubility in water” value under setting [1] was “insol”.
For the compound `Cc1ccc(C(C)C)cc1O` [carvacrol], the “Solubility in alcohols” value is “sol. alcohols, organic solvents (ethers, halocarbons)”. Further, under setting [1], the “Solubility in water” value is on record as “sp. sol”.
For `CCCCCc1cc2c(c(O)c1C(=O)O)C=CC(C)(CCC=C(C)C)O2` (stereo not shown) [cannabichromenic acid (CBCA), cannabichromenic acid], the “Solubility in alkaline solutions” value is reported as “sol”; the “Solubility in alcohols” value is recorded as “sol. alcohols”. In addition, the “Solubility in water” value under setting [1] is reported as “sol”.
In the case of `C=C(C)C1CC=C(C)CC1c1c(O)cc(CCCCC)c(C(=O)O)c1O` (stereo not shown) [Δ(8)-tetrahydrocannabidiolic acid], the “Solubility in alkaline solutions” value was “sol”; the “Solubility in alcohols” value is recorded as “sol. alcohols”. In addition, the “Solubility in water” value under setting [1] was “sol”.
Take `CCCCCc1cc2c(c(O)c1C(=O)O)C1CC(C)=CC[C@H]1C(C)(C)O2` (stereo partly shown) [Δ(8)-tetrahydrocannabinolic acid]: the “Solubility in alkaline solutions” value is reported as “sol”; the “Solubility in alcohols” value is “sol. alcohols”. For the same compound, the “Solubility in water” value under setting [1] is “sol”.
For the compound `COc1cc(-c2cc(=O)c3c(O)c(CC=C(C)C)c(O)cc3o2)ccc1O` [cannaflavin B], the “Solubility in alkaline solutions” value was “sol”; the “Solubility in alcohols” value was “sol. alcohols, ethers, halocarbons”. The “Solubility in water” value under setting [1] is given as “insol”.
As to `CC(C)=C1CC[C@@H](C)CC1=O` [pulegone], the “Solubility in alcohols” value is reported as “sol. alcohols, organic solvents (ethers, halocarbons)”. Besides, the “Solubility in water” value under setting [1] is “insol”.
In the case of `CCCCCc1cc(O)c2c(c1)OC(C)(C)[C@@H]1CCC(C)=CC21` (stereo partly shown) [Δ(9)-tetrahydrocannabinol (Δ(9)-THC), Δ(9)-tetrahydrocannabinol, reference compound], the “Solubility in alcohols” value is on record as “sol. MeOH, EtOH sol. lipids sol. non-polar organic solvents”. In addition, the Solubility in water (23° C.) is 2.8 µg/mL (≈ 8.9 µM).
Consider `CCCCCc1cc(O)c2c(c1)OC(C)(C)c1ccc(C)cc1-2` [cannabinol (CBN), cannabinol], for which the “Solubility in alcohols” value is “sol. MeOH, EtOH, lipids, non-polar organic solvents”. In addition, the “Solubility in water” value under setting [1] is “insol”.
For `CCCCCc1cc(O)c(C/C=C(\C)CCC=C(C)C)c(O)c1` [cannabigerol (CBG), cannabigerol], the “Solubility in alcohols” value was “sol. pentane”. In addition, the “Solubility in water” value under setting [1] is listed as “insol”.
In the case of `C=CC(=C)CCC=C(C)C` [β-myrcene], under setting [1], the “Solubility in water” value is recorded as “insol”.
As to `COc1cc(-c2cc(=O)c3c(O)c(C/C=C(\C)CCC=C(C)C)c(O)cc3o2)ccc1O` [cannaflavin A], the “Solubility in alkaline solutions” value is given as “sol”; the “Solubility in alcohols” value is “sol. alcohols, ethers, halocarbons”. Further, the “Solubility in water” value under setting [1] is on record as “insol”.
Take `CC1=CCC(O)(C(C)C)CC1` (stereo not shown) [terpinen-4-ol]: the “Solubility in alcohols” value is reported as “sol. alcohols, organic solvents (ethers, halocarbons)”. Moreover, the “Solubility in water” value under setting [1] is “insol”.
Turning to `CCCCCc1cc(O)c2c(c1)OC1(C)CCC3C1C2C3(C)C` (stereo not shown) [cannabicyclol (CBL), cannabicyclol], the “Solubility in alcohols” value is listed as “sol. pentane”. The “Solubility in water” value under setting [1] is “insol”.
As for `CCCCCc1cc(O)c(C/C=C(\C)CCC=C(C)C)c(O)c1C(=O)O` [cannabigerolic acid (CBGA), cannabigerolic acid], the “Solubility in alkaline solutions” value is on record as “sol”; the “Solubility in alcohols” value is “sol. alcohols”. Besides, under setting [1], the “Solubility in water” value is “sol”.
Take `C=C(C)C1CC=C(C)C(=O)C1` (stereo not shown) [carvone]: the “Solubility in alcohols” value was “sol. alcohols, organic solvents (ethers, halocarbons)”. Moreover, the “Solubility in water” value under setting [1] is given as “insol”.
On to `C=C1CCC2OC2(C)CC[C@H]2[C@H]1CC2(C)C` (stereo partly drawn) [β-caryophyllene epoxide], for which the “Solubility in alcohols” value is reported as “sol. alcohols, organic solvents (ethers, halocarbons)”. For the same compound, under setting [1], the “Solubility in water” value is given as “insol”.
For `C[C@@H]1CCC2(OC2(C)C)C(=O)C1` (stereo partly shown) [pulegone-1,2epoxide], the “Solubility in alcohols” value is given as “sol. alcohols, organic solvents (ethers, halocarbons)”. Under setting [1], the “Solubility in water” value was “insol”.
Turning to `C=C(C)C1CCC2(C)OC2C1` (stereo not shown) [limonene oxide], the “Solubility in alcohols” value was “sol. alcohols, organic solvents (ethers, halocarbons)”. In addition, the “Solubility in water” value under setting [1] is on record as “insol”.
As for `C=C(C)C1CC=C(C)CC1c1c(O)cc(CCCCC)cc1O` (stereo not shown) [Δ(8)-tetrahydrocannabidiol (Δ(8)-CBD), Δ(8)-tetrahydrocannabidiol], the “Solubility in alcohols” value is listed as “sol. pentane”. The “Solubility in water” value under setting [1] is listed as “insol”.
